Tests used:
[1] = system: statin-intolerant patients with or at high risk of CVD; experiment: CLEAR OUTCOMES trial (Example 1): adverse events and safety laboratory findings; type: in vivo, human
Description: The CLEAR OUTCOMES trial was a randomized, placebo-controlled, double-blind trial that enrolled patients at 1250 sites in 32 countries. An independent Data Monitoring Committee reviewed safety and efficacy data during the trial.
Patients 18 to 85 years of age were eligible for enrollment if they met either of two criteria for increased cardiovascular risk, a prior cardiovascular event (secondary prevention) or clinical features that placed them at high risk for a cardiovascular event (primary prevention). (Nicholls S. Lincoff A M, Bays H E, et al. Rationale and design of the CLEAR-outcomes trial: Evaluating the effect of bempedoic acid on cardiovascular events in patients with statin intolerance. Am Heart J. 2021 May; 235:104-112) All patients provided written informed consent. Patients had to report statin intolerance due to an adverse effect that started or increased during statin therapy and resolved or improved after statin therapy was discontinued. Patients could be enrolled if they tolerated a very low average daily statin dose (e.g., an average daily dose of rosuvastatin <5 mg, atorvastatin <10 mg, simvastatin <10 mg, lovastatin <20 mg, pravastatin <40 mg, fluvastatin <40 mg, or pitavastatin <2 mg). Other lipid-lowering therapies were permitted, including ezetimibe, niacin, bile acid resins, fibrates, and/or proprotein convertase subtilisin kexin type 9 (PCSK9) inhibitors. Full inclusion and exclusion criteria are provided in Nicholls et al. (Am Heart J. 2021).
Eligible patients entered a 4-week run-in period during which patients were treated with single-blind placebo. If patients were intolerant to placebo treatment or if adherence was <80% by tablet count, they were not eligible for randomization. Patients who successfully completed the run-in period were randomly assigned in a 1:1 ratio to receive bempedoic acid at an oral dose of 180 mg or matching placebo, administered daily. Beginning 6 months after enrollment, the central laboratory notified the investigator if the patient's LDL-cholesterol level was ≥25% higher than baseline. These patients were counseled on healthy dietary guidelines and reminded to take all lipid-regulating medications. If repeat testing confirmed that LDL-cholesterol value met the threshold criteria, the provider could adjust the lipid-lowering treatment regimen per standard of care and local guidelines.

[2] = system: primary prevention patients unable to tolerate recommended doses of statins; experiment: CLEAR OUTCOMES primary prevention subgroup (Example 2): effects on LDL cholesterol and hsCRP; type: in vivo, human
Method: The rationale, design and methods of the CLEAR Outcomes trial is described in Example 1. The trial was conducted at 1250 sites in 32 countries and designed by the Cleveland Clinic Coordinating Center for Clinical Research (C5Research) and an academic Executive Committee in collaboration with the sponsor. The protocol was approved by ethics committees at participating sites and all patients provided written informed consent before enrollment. A contract research organization collected the data which were transferred to C5Research at completion of the trial whose statisticians conducted the analyses described herein. An independent Data Monitoring Committee monitored the trial.
Primary prevention patients 18 to 85 years of age with an LDL cholesterol ≥100 mg/dL with clinical features placing them at high risk for a first cardiovascular event were eligible. Criteria for high cardiovascular risk included risk scores, such as the Reynolds Risk Score and the SCORE project (Ridker et al., Development and validation of improved algorithms for the assessment of global cardiovascular risk in women: the Reynolds Risk Score, JAMA. 2007 Feb. 14; 297(6):611-9; Ridker et al., C-reactive protein and parental history improve global cardiovascular risk prediction. The Reynolds Risk Score for men, Circulation. 2008; 118: 2243-2251; European Guidelines on CVD Prevention in Clinical Practice. 2016. Eur J Prev Cardiol. 2016 July; 23(11):NP1-NP96), a coronary artery calcium score >400 Agatston units (AU) or presence of either type 1 or 2 diabetes in women aged >65 years or men older than 60 years.
Investigators were responsible for assessing the patient for statin intolerance. Patients had to report statin intolerance due to an adverse effect that started or increased during statin therapy and resolved or improved after statin therapy was discontinued. Entry criteria required inability to tolerate 2 or more statins at any dose or 1 statin and unwillingness to attempt a second statin or advised by a physician not to attempt taking a second statin. Both the patient and site investigator were required to provide written confirmation that the patient was statin intolerant and aware of the benefits of statins to reduce the risk of cardiovascular events, including death, and acknowledge that many patients who are unable to tolerate a statin can tolerate a different statin or dose. Patients could be enrolled if they tolerated a very low average daily statin dose defined as rosuvastatin <5 mg, atorvastatin <10 mg, simvastatin <10 mg, lovastatin <20 mg, pravastatin <40 mg, fluvastatin <40 mg, or pitavastatin <2 mg. Other background lipid-lowering therapies were permitted, including ezetimibe, niacin, bile acid resins, fibrates, and/or proprotein convertase subtilisin kexin type 9 (PCSK9) inhibitors.
Eligible patients entered a 4-week run-in period during which patients were treated with single-blind placebo. If patients were intolerant to placebo treatment or if adherence was <80% by tablet count, they were not eligible for randomization. Patients who successfully completed the run-in period were randomly assigned in a 1:1 ratio to receive a 180 mg oral dose of bempedoic acid or matching placebo, administered daily. During the trial, LDL cholesterol and hsCRP results were masked. Beginning 6 months after randomization, the central laboratory notified the investigator, who remained blinded to treatment assignment, if the patient's LDL cholesterol level was ≥25% higher than baseline. Repeat testing was performed after the patient was counseled about diet and encouraged to take all medications as prescribed. The patient returned for a repeat fasting blood lipid profile to confirm whether the LDL cholesterol value exceeded the threshold criteria. If confirmed, the patient's treatment regimen for LDL cholesterol lowering could be adjusted, per standard of care and local practice. […]

[3] = at any visit, repeated and confirmed, N = 7001
[4] = primary prevention subgroup, vs placebo
[5] = primary prevention, after 12 months treatment
[6] = primary prevention, baseline mean 142.2 mg/dL

CC(C)(CCCCCC(O)CCCCCC(C)(C)C(=O)O)C(=O)O [Bempedoic Acid, Bempedoic acid]
New onset diabetes in patients with normoglycemia at baseline, % ([1]; 180 mg oral daily): 5.5%
New onset diabetes in patients with pre-diabetes at baseline, % ([1]; 180 mg oral daily): 19.5%
Adjudicated tendon rupture, % ([1]; 180 mg oral daily, N = 7001): 1.2%
Adverse event leading to drug discontinuation, % ([1]; 180 mg oral daily, N = 7001): 11.0%
Any muscle disorder, % ([1]; 180 mg oral daily, N = 7001): 15.0%
Any treatment emergent adverse event, % ([1]; 180 mg oral daily, N = 7001): 86.3%
Atrial fibrillation, % ([1]; 180 mg oral daily, N = 7001): 3.3%
Cholelithiasis, % ([1]; 180 mg oral daily, N = 7001): 2.2%
Discontinuation of treatment due to myalgia, % ([1]; 180 mg oral daily, N = 7001): 1.8%
Elevated hepatic enzymes, % ([1]; 180 mg oral daily, N = 7001): 4.5%
Gout, % ([1]; 180 mg oral daily, N = 7001): 3.1%
Hypoglycemia, % ([1]; 180 mg oral daily, N = 7001): 4.3%
Malignancies, % ([1]; 180 mg oral daily, N = 7001): 4.7%
Metabolic acidosis, % ([1]; 180 mg oral daily, N = 7001): 0.2%
Myalgia, % ([1]; 180 mg oral daily, N = 7001): 5.6%
Neurocognitive disorders, % ([1]; 180 mg oral daily, N = 7001): 0.8%
Serious treatment emergent adverse event, % ([1]; 180 mg oral daily, N = 7001): 25.4%
Tendinopathies, % ([1]; 180 mg oral daily, N = 7001): 1.7%
Change from baseline in creatinine levels ([1]; after 6 months): 0.05 ± 0.2 mg/dL
Change from baseline in uric acid levels ([1]; after 6 months): 0.76 ± 1.2 mg/dL
Creatine kinase levels >5x ULN (repeated and confirmed), % ([1]; at any visit, N = 7001): 0.1%
Creatine kinase levels >5x ULN (single occurrence), % ([1]; at any visit, N = 7001): 0.6%
Alanine aminotransferase level >3 times ULN, % [1, 3]: 1.2%
Aspartate aminotransferase level >3 times ULN, % [1, 3]: 1.1%
Premature discontinuation of study drug ([1]; bempedoic acid-treated patients, full population): 29.1%
Worsening hyperglycemia, % ([1]; in patients with diabetes at baseline): 22.7%
New onset diabetes in patients without diabetes at baseline, % ([1]; investigator-reported, 180 mg oral daily): 16.1%
tolerability of treatment ([1]; rates of discontinuation for any reason similar to placebo): well tolerated
time-averaged difference in LDL cholesterol over the course of the trial [2, 4]: 23.2 mg/dL
time-averaged difference in LDL cholesterol over the duration of the trial, percent [2, 4]: 16.3%
difference in hsCRP reduction compared with placebo [2, 5]: 0.56 mg/L
difference in hsCRP reduction compared with placebo, percent [2, 5]: 21.5%
LS mean difference in LDL cholesterol compared with placebo after 6 months, percent [2, 6]: 21.3%
LS mean reduction in LDL cholesterol compared with placebo after 6 months of treatment [2, 6]: 30.2 mg/dL
reduction of hsCRP after 12 months treatment ([2]; primary prevention, median baseline 2.4 mg/L, bempedoic acid group): 0.34 mg/L

Source: US20240226049A1, “METHODS OF TREATMENT USING BEMPEDOIC ACID” (Esperion Therapeutics, Inc., priority 2023, published 2024)
